According to PMC7075946 (Frontiers in Immunology, 2020):

Key:
[1] = system: human PBMCs; assay: Human PBMC intracellular cytokine staining (flow cytometry); assay type: cell-based; conditions: for frequency of mDC producing IL-12p40 / frequency of classical monocytes producing IL-12p40: 1 h plus 5 h GolgiPlug
Method: Human blood was obtained from healthy adult donors through a University of Montana Institutional Review Board (IRB)-approved protocol. PBMCs were separated from whole blood via density gradient separation using Histopaque 1,077 (Sigma). For PBMC-based assays, cells were resuspended at the desired cell concentration in complete media (RPMI1640+10% FBS+antibiotics). Cells were treated with the indicated compound concentrations and stimulated for 6–24 h depending on the assay as indicated in the figure legends and assays outlined below.
For flow cytometry analysis of innate cytokines, PBMCs were stimulated with indicated concentration of compound for 1 h followed by 5 h incubation with GolgiPlug (BD, 1 μL/mL) at 37°C. Post-stimulation, cells were harvested and surface stained with viability dye, and monoclonal antibodies targeting CD3 AF700 (Tonbo Bioscience, UCHT1), CD19 AF700 (Tonbo Bioscience, HIB19), CD56 AF700 (Biolegend, 5.1H11), HLA-DR BV785 (Biolegend, L243), CD14 APC-Cy7 (Biolegend, 63D3), CD16 PE-Dazzle594 (Biolegend, 3G8), CD11c BV421 (Biolegend, 3.9), and CD123 APC (Biolegend, 6H6). Following fixation and permeabilization with BD Cytofix/Cytoperm buffers, cells were stained with monoclonal antibodies targeting the intracellular cytokines IL-12p40 PE (a shared IL-12 and IL-23 subunit, Biolegend, C11.5), IL-6 FITC (Biolegend MQ2-13A5), IL-4 BV605 (Biolegend, MP4-25D2), and LAP (TGF-β) PE Cy7 [latency-associated peptide ([55]), Biolegend TW4-2F8]. Data were collected using an LSRII flow cytometer (BD) and analyzed using FlowJo 10.0 software (TreeStar).
Figure 7 Lipidated imidazoquinolines elicit T cell polarizing cytokines primarily from APCs. PBMCs from 6 healthy, adult blood donors were stimulated with 2 μM indicated TLR7/8, TLR4, or combination TLR4 + TLR7/8 agonists. After 1 h, brefeldin A (GolgiPlug) was added and cells were incubated for a further 5 h. Cells were then harvested and stained with surface antibodies for phenotyping, fixed and permeablized and stained with antibodies to detect intracellular cytokines. (A) Frequency of IL-12/IL-23+ cells, (B) frequency of IL-6+ cells, (C) frequency of TGFβ (LAP)+ cells, and (D) frequency of IL-4+ cells.

[2] = biological target: T1, mouse TLR7 (Mus musculus, UniProt P58681); assay: cell-based
T1 sequence (P58681 27-1050): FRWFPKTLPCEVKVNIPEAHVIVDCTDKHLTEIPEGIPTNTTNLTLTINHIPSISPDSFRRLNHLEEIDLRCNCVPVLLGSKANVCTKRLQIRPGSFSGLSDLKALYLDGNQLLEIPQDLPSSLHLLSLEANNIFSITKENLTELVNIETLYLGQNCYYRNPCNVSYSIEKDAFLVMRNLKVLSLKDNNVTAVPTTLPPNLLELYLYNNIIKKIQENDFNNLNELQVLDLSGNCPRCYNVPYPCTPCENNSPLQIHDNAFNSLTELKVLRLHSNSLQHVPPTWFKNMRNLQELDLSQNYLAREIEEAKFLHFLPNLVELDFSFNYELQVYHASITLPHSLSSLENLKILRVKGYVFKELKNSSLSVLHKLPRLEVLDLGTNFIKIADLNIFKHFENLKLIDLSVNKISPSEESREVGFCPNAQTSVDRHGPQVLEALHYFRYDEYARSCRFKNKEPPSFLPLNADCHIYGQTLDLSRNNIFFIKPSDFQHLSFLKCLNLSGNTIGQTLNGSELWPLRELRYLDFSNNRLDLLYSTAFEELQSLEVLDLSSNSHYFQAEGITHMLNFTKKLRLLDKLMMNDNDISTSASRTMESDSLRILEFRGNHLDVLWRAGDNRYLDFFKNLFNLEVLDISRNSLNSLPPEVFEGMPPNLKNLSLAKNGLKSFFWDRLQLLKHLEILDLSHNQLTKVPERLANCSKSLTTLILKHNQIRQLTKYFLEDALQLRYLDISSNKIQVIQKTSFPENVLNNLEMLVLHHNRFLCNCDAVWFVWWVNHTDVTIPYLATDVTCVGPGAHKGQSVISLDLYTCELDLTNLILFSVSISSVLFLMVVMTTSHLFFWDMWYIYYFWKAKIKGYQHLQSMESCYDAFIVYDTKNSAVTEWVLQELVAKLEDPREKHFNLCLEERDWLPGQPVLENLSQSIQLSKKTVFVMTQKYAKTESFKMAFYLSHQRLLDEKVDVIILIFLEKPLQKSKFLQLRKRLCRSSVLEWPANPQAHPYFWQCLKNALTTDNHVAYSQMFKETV

CCCCc1nc2c(N)nc3ccccc3c2n1CCO [UM-3001]
frequency of mDC producing IL-12p40 ([1]; 2 μM): approximately 20% | frequency of mDC and classical monocytes expressing TGFβ (LAP) ([1]; compound alone, 2 μM): low frequencies | frequency of mDC and classical monocytes expressing TGFβ (LAP) ([1]; in combination with CRX-601, 2 μM): low frequencies | EC50 [2]: 480 nM

CCCCCCCCCCCCCCCC(=O)OC[C@H](COCCOCCOCCOP(=O)(O)OCCn1c(CCCC)nc2c(N)nc3ccccc3c21)OC(=O)CCCCCCCCCCCCCCC [UM-3003]
frequency of classical monocytes producing IL-12p40 ([1]; 2 μM): Lower frequencies | frequency of mDC producing IL-12p40 ([1]; 2 μM): Lower frequencies | EC50 [2]: 12600 nM

CCCCCCCCCCCCCCCC(=O)OC[C@H](COCCOCCOCCOCCOCCOCCOP(=O)(O)OCCn1c(CCCC)nc2c(N)nc3ccccc3c21)OC(=O)CCCCCCCCCCCCCCC [UM-3004]
frequency of classical monocytes producing IL-12p40 ([1]; 2 μM): Lower frequencies | frequency of mDC producing IL-12p40 ([1]; 2 μM): Lower frequencies | EC50 [2]: 860 nM

CCCCCCCC/C=C\CCCCCCCC(=O)OC[C@H](COP(=O)(O)OCCc1ccc2c(c1)nc(N)c1nc(CCCC)n(CCO)c12)OC(=O)CCCCCCC/C=C\CCCCCCCC [UM-3005]
frequency of classical monocytes producing IL-12p40 ([1]; 2 μM): approximately 20% | frequency of mDC producing IL-12p40 ([1]; 2 μM): approximately 20% | EC50 [2]: 1140 nM
